Measurements: publication PMC7932537, “Quantitative profiling of protease specificity” (PLoS Computational Biology, 2021)

Columns and labels:
[1] = system: MMP-2; test: Substrate phage display with NGS: relative probability (RP) of P3-P1' tetramer clusters; type: biochemical, human; settings: MMP2; RP of the P3-P1' tetramer contained in the substrate (substrate phage display with NGS);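 also: ratio of tetramer probability after protease selection to that in naive phage library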
[2] = biological target: MMP-9 (Homo sapiens, UniProt P14780); test: K(obs) of individual phage substrates (set of 1369); type: biochemical; settings: MMP9, individual phage substrates, set of 1369 peptides
Chain of MMP-9 (P14780 94-707): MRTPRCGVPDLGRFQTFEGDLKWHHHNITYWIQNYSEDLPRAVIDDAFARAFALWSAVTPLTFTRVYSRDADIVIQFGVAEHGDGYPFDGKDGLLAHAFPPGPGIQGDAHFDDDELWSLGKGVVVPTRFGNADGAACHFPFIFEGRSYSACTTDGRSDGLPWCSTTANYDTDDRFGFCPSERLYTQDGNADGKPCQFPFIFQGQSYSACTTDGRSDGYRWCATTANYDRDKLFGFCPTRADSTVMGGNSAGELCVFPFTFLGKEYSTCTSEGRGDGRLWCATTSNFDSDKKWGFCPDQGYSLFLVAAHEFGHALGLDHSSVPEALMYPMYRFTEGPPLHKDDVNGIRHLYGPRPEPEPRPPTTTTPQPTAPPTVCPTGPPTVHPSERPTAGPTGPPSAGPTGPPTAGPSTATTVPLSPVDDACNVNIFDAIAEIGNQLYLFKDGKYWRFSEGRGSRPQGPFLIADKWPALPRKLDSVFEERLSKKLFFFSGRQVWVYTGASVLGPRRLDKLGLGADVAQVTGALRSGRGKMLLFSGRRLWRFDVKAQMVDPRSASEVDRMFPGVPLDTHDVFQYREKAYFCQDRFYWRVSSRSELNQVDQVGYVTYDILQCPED

[3] = biological target: T1, MMP-2 (Homo sapiens, UniProt P08253); test: as above; type: biochemical; settings: MMP2
T1 sequence (P08253 110-660): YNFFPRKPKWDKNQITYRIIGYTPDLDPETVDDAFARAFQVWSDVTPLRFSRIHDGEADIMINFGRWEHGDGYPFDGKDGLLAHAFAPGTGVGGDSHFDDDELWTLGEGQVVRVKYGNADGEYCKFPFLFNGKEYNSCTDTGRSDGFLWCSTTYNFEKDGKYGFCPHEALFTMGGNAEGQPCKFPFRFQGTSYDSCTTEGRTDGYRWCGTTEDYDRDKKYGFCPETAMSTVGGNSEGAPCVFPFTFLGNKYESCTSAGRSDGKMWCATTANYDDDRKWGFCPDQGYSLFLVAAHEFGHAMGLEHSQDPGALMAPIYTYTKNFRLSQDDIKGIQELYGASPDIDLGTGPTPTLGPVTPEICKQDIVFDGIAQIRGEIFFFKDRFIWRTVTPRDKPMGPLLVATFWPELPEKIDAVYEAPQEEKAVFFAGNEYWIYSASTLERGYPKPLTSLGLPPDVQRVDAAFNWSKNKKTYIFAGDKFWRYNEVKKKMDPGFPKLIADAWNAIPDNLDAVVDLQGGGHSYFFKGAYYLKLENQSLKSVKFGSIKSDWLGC

[4] = dash in sequence marks cleavage position
[5] = individual phage substrate from the set of 1369 peptides, cleavage position marked by the dash in the sequence
[6] = '-' marks the cleavage position (P1-P1')
[7] = individual phage substrates, set of 1369 peptides, cleavage position marked by '-' in the sequence

| Substance | Kobs [2, 4] [M⁻¹ s⁻¹] | Kobs [3, 5] [M⁻¹ s⁻¹] | Kobs [2, 6] [M⁻¹ s⁻¹] | Kobs [3, 7] [M⁻¹ s⁻¹] | other results |
| --- | --- | --- | --- | --- | --- |
| GGSGN-LTMGS |  |  |  |  | relative probability (RP) [1]: 12.7361; Kobs ([2]; hyphen in sequence marks cleavage position): 0 M⁻¹ s⁻¹; Kobs ([3]; individual phage substrates, set of 1369 peptides, cleavage position marked by hyphen in sequence): 0 M⁻¹ s⁻¹ |
| DLPHC-LTASG | 355.093 | 619.843 |  |  |  |
| GGHQW-LRTAS | 0 | 2687.73 |  |  |  |
| GVLFH-LSTAS |  |  | 0 | 0 |  |
| SVARN-LTASG |  |  | 4205.91 | 10866.7 |  |
| KSPRM-LTASG | 12792.1 | 12792.1 |  |  |  |
| RRTAW-LTASG |  |  | 1373.05 | 8321.48 |  |
| NFPMS-LTASG |  |  | 12792.1 | 12792.1 |  |
| GGSGA-LQVPT |  |  | 56.119 | 0 |  |
| GTIFR-LTASG |  |  | 619.843 | 551.253 |  |
| GQPRN-LSTAS | 12792.1 | 12792.1 |  |  |  |
| GRASA-LNTAS |  |  | 0 | 517.582 |  |
| GGSGQ-LLLRN |  |  | 0 | 0 |  |
| SGVWP-LVKTA | 0 | 0 |  |  |  |
| TTSAS-LTASG | 171.876 | 3165.09 |  |  |  |
| GISMY-LTASG |  |  | 0 | 690.17 |  |
| GQVFR-LITAS |  |  | 323.705 | 0 |  |
| SGPVS-LRMTA | 12792.1 | 12792.1 |  |  |  |
| SGALG-LLETA |  |  | 171.876 | 171.876 |  |

| Substance | Kobs [2, 4] [M⁻¹ s⁻¹] | Kobs [3, 5] [M⁻¹ s⁻¹] | Kobs [2, 6] [M⁻¹ s⁻¹] | Kobs [3, 7] [M⁻¹ s⁻¹] | other results |
| --- | --- | --- | --- | --- | --- |
| GGSGQ-LFNVG | 762.325 | 4470.66 |  |  |  |
| ISPAT-LTASG |  |  | 12792.1 | 12792.1 |  |
| SGAQA-LTLTA |  |  | 113.394 | 171.876 |  |
| SGVMR-LVVTA | 171.876 | 0 |  |  |  |
| VNVRN-LTASG | 5269.78 | 12792.1 |  |  |  |
| VMHQN-LTASG | 171.876 | 8941.32 |  |  |  |
| GGSGM-LLMKQ |  |  | 0 | 0 |  |
| TLPHS-LTASG | 9740.44 | 12792.1 |  |  |  |
| FAAYS-LTASG |  |  | 12792.1 | 5667.28 |  |
| SGIWK-LTATA |  |  | 386.839 | 0 |  |
| SGVAP-LILTA |  |  | 142.481 | 0 |  |
| GGSGR-LVVRL |  |  | 0 | 113.394 |  |
| SRVLP-LTASG | 1711.63 | 4613.14 |  |  |  |
| GKTWA-LTASG |  |  | 912.511 | 323.705 |  |
| WHFGA-LTASG |  |  | 0 | 12792.1 |  |
| YSALP-MTASG | 3964.21 | 1561.44 |  |  |  |
| YTMLH-LTASG | 0 | 726.013 |  |  |  |
| SRPLN-LTASG | 7386.83 | 6688.74 |  |  |  |
| GGSGR-LRLAI | 0 | 0 |  |  |  |

| Substance | Kobs [2, 4] [M⁻¹ s⁻¹] | Kobs [3, 5] [M⁻¹ s⁻¹] | Kobs [2, 6] [M⁻¹ s⁻¹] | Kobs [3, 7] [M⁻¹ s⁻¹] | other results |
| --- | --- | --- | --- | --- | --- |
| DVAFH-LTASG |  |  | 1283.43 | 1925.41 |  |
| GGSGS-LTFNT | 0 | 0 |  |  |  |
| HGPMS-LTASG |  |  | 10866.7 | 10866.7 |  |
| SGANY-IRATA | 418.952 | 1465.65 |  |  |  |
| VFYQS-LTASG |  |  | 0 | 12792.1 |  |
| GKVHQ-MLTAS |  |  | 27.918 | 0 |  |
| RGPVF-LTASG | 10866.7 | 10866.7 |  |  |  |
| SGWAS-MRLTA |  |  | 142.481 | 0 |  |
| GPAQD-LYTAS | 0 | 0 |  |  |  |
| CLLAS-LTASG | 0 | 6396.07 |  |  |  |
| SGVHR-LSYTA | 0 | 0 |  |  |  |
| WLAQA-LTASG |  |  | 7815.03 | 12792.1 |  |
| PGVRF-LTASG |  |  | 7815.03 | 8941.32 |  |
| SGPKQ-LTRTA |  |  | 1465.65 | 0 |  |
| SGVRA-LISTA |  |  | 12792.1 | 12792.1 |  |
| GAAWG-LNTAS | 836.403 | 201.585 |  |  |  |
| SGVMY-LQVTA | 654.784 | 0 |  |  |  |
| GPMQR-LMTAS |  |  | 0 | 0 |  |
| RAGFQ-LTASG | 0 | 0 |  |  |  |

Continued, in another order:

| Kobs [2, 4] [M⁻¹ s⁻¹] | Kobs [3, 5] [M⁻¹ s⁻¹] | Kobs [2, 6] [M⁻¹ s⁻¹] | Kobs [3, 7] [M⁻¹ s⁻¹] | Substance | other results |
| --- | --- | --- | --- | --- | --- |
| 261.974 | 323.705 |  |  | FRVEP-LTASG |  |
| 9740.44 | 6131.32 |  |  | KMPRW-ITASG |  |
|  |  | 201.585 | 912.511 | SGVFN-LAFTA |  |
| 551.253 | 726.013 |  |  | GGSGA-YTMVA |  |
|  |  | 0 | 0 | SGFSE-LTLTA |  |
|  |  | 7815.03 | 1561.44 | SGPLS-QSTTA |  |
|  |  | 3964.21 | 2916.17 | KAALP-LTASG |  |
|  |  | 27.918 | 0 | EKVML-MTASG |  |
| 8941.32 | 9740.44 |  |  | RWPAW-LTASG |  |
| 113.394 | 0 |  |  | TGSWP-LTASG |  |
|  |  | 1327.88 | 551.253 | GRVWH-LQTAS |  |
|  |  | 4470.66 | 12792.1 | STVRN-LTASG |  |
|  |  | 2409.72 | 5889.62 | DILRH-LTASG |  |
|  |  | 12792.1 | 8941.32 | RYPWA-LTASG |  |
|  |  | 0 | 0 | GALDW-MSTAS |  |
|  |  | 451.441 | 323.705 | SGAFS-LMRTA |  |
|  |  | 484.315 | 1196.62 | GSGNF-LRKMT |  |
| 0 | 585.336 |  |  | GGSGS-LNQRL |  |
| 0 | 0 |  |  | GSGQG-LRMGT |  |
|  |  | 5461.43 | 836.403 | PVVWW-QTASG |  |
|  |  | 4922.1 | 12792.1 | GLAVG-LRTAS |  |

| Kobs [2, 4] [M⁻¹ s⁻¹] | Kobs [3, 5] [M⁻¹ s⁻¹] | Kobs [2, 6] [M⁻¹ s⁻¹] | Kobs [3, 7] [M⁻¹ s⁻¹] | Substance | other results |
| --- | --- | --- | --- | --- | --- |
| 27.918 | 113.394 |  |  | GCAQE-LTTAS |  |
|  |  | 84.609 | 113.394 | GFAIS-MVTAS |  |
| 2476.66 | 4470.66 |  |  | YSPSL-ITASG |  |
| 7815.03 | 1870.4 |  |  | TMPYL-LTASG |  |
| 12792.1 | 3165.09 |  |  | RRPLR-ITASG |  |
| 355.093 | 12792.1 |  |  | GSGSD-LKSKT |  |
|  |  | 0 | 56.119 | GGSGE-LRLSN |  |
| 517.582 | 1071.29 |  |  | SGPQA-VVKTA |  |
|  |  | 690.17 | 1610.61 | RGMQN-LTASG |  |
|  |  | 4470.66 | 6688.74 | TMAHP-LTASG |  |
|  |  | 7015.91 | 12792.1 | GMVLN-LTASG |  |
| 1513.13 | 231.616 |  |  | SGVRF-MRQTA |  |
|  |  | 171.876 | 0 | GGSGA-LTMPL |  |
| 551.253 | 3253.29 |  |  | PYAEN-LTASG |  |
| 292.668 | 201.585 |  |  | GGSGA-LREKV |  |
|  |  | 113.394 | 1112.44 | GRLGC-LKTAS |  |
|  |  | 201.585 | 12792.1 | HVLQN-LTASG |  |
|  |  | 323.705 | 10866.7 | IFINF-LTASG |  |
|  |  | 0 | 8321.48 | GGSGR-LLQFL |  |
|  |  | 1112.44 | 12792.1 | GGSGF-LMSWM |  |
| 56.119 | 836.403 |  |  | SGVGA-LNKTA |  |
